# Results: PMC6440935, “Characterization and phase I study of CLR457, an orally bioavailable pan-class I PI3-kinase inhibitor” (Investigational New Drugs, 2018)
# Like-named read-outs stand apart in the source and are kept apart here.
# [1] = drug-related, All Patients, N = 31
# [2] = drug-related, all patients N = 31
# [3] = suspected related, all patients
# From the text: The primary objective was to define the maximum tolerated dose (MTD). Secondary objectives included assessments for safety, tolerability, pharmacokinetic (PK) profile, and preliminary antitumor activity.
# Patients had histologically documented locally advanced or metastatic solid tumors harboring an activating PIK3CA mutation or amplification, PTEN loss of function, c-MET activation, [16, 17] […] Other key inclusion criteria included age ≥ 18 years, Eastern Cooperative Oncology Group performance status (ECOG-PS) ≤2, adequate organ function, measurable or non-measurable disease as determined by Response Evaluation Criteria in Solid Tumors (RECIST) version 1.1.
# The starting dose for CLR457 was 5 mg QD, based on preclinical toxicology studies in accordance with ICH guidelines, and was administered at the same time each day ±2 h in a fasted state. Various doses were planned up to 300 mg QD until MTD determination.
# Safety was evaluated by incidence, nature, severity, and relatedness of adverse events (AEs), and graded according to National Cancer Institute - Common Terminology Criteria for Adverse Events (NCI CTCAE) v4.0.3. DLTs were defined as any hematologic or non-hematologic ≥ Grade 3 AE assessed as possibly related to CLR457 that occurred within the first cycle (28 days) of treatment. In addition, uncontrolled (> 14 days) Grade 2 rash or hyperglycemia were also considered DLTs. All AEs regardless of attribution were collected until 30 days following the last administration of treatment or study discontinuation/termination.
# Descriptive methods were used to tabulate toxicity and response endpoints in the clinical trial. All patients treated with CLR457 were included for safety. […] Dose escalation was guided by an adaptive Bayesian logistic regression model (BLRM) incorporating the escalation with overdose control (EWOC) principle. […] The study data (including DLTs during cycle 1 and other safety and PK data) were reviewed by the sponsor and trial investigators at each dose level. […] The Full Analysis Set (FAS) included all patients who received at least one dose of CLR457. Safety set included all patients who received at least one dose of CLR457 and had at least one valid post-baseline assessment. The Dose-determining set (DDS) included all patients from the safety set who either met the following minimum exposure criterion and had sufficient safety evaluations, or experienced a DLT during Cycle 1 (the first 28 days of dosing). The Pharmacokinetic analysis set included all patients who had at least one blood sample providing evaluable PK data.
smiles,measurement,setting,value
C[C@H]1OC(=O)N(c2cc(-c3cnc(N)nc3C(F)(F)F)nc(N3CCOCC3)n2)[C@H]1CO [CLR457],"Dehydration, All Grade","drug-related, 100 mg, N = 11",1 (9.1) n (%)
same,"Dehydration, Grade ≥ 3","drug-related, 100 mg, N = 11",0 n (%)
same,"Diarrhea, All Grade","drug-related, 100 mg, N = 11",5 (45.5) n (%)
same,"Diarrhea, Grade ≥ 3","drug-related, 100 mg, N = 11",1 (9.1) n (%)
same,"Dry mouth, All Grade","drug-related, 100 mg, N = 11",1 (9.1) n (%)
same,"Dry mouth, Grade ≥ 3","drug-related, 100 mg, N = 11",0 n (%)
same,"Dry skin, All Grade","drug-related, 100 mg, N = 11",1 (9.1) n (%)
same,"Dry skin, Grade ≥ 3","drug-related, 100 mg, N = 11",0 n (%)
same,"Dysgeusia, All Grade","drug-related, 100 mg, N = 11",3 (27.3) n (%)
same,"Dysgeusia, Grade ≥ 3","drug-related, 100 mg, N = 11",0 n (%)
same,"Fatigue, All Grade","drug-related, 100 mg, N = 11",4 (36.4) n (%)
same,"Fatigue, Grade ≥ 3","drug-related, 100 mg, N = 11",1 (9.1) n (%)
same,"Headache, All Grade","drug-related, 100 mg, N = 11",1 (9.1) n (%)
same,"Headache, Grade ≥ 3","drug-related, 100 mg, N = 11",0 n (%)
same,"Hyperglycemia, All Grade","drug-related, 100 mg, N = 11",4 (36.4) n (%)
same,"Hyperglycemia, Grade ≥ 3","drug-related, 100 mg, N = 11",1 (9.1) n (%)
same,"Hypomagnesaemia, All Grade","drug-related, 100 mg, N = 11",1 (9.1) n (%)
same,"Hypomagnesaemia, Grade ≥ 3","drug-related, 100 mg, N = 11",0 n (%)
same,"Maculo-papular rash, All Grade","drug-related, 100 mg, N = 11",7 (63.6) n (%)
same,"Maculo-papular rash, Grade ≥ 3","drug-related, 100 mg, N = 11",5 (45.5) n (%)
same,"Nausea, All Grade","drug-related, 100 mg, N = 11",4 (36.4) n (%)
same,"Nausea, Grade ≥ 3","drug-related, 100 mg, N = 11",0 n (%)
same,"Pneumonitis, All Grade","drug-related, 100 mg, N = 11",2 (18.2) n (%)
same,"Pneumonitis, Grade ≥ 3","drug-related, 100 mg, N = 11",2 (18.2) n (%)
same,"Pruritus, All Grade","drug-related, 100 mg, N = 11",3 (27.3) n (%)
same,"Pruritus, Grade ≥ 3","drug-related, 100 mg, N = 11",0 n (%)
same,"Pyrexia, All Grade","drug-related, 100 mg, N = 11",3 (27.3) n (%)
same,"Pyrexia, Grade ≥ 3","drug-related, 100 mg, N = 11",0 n (%)
same,"Rash, All Grade","drug-related, 100 mg, N = 11",3 (27.3) n (%)
same,"Rash, Grade ≥ 3","drug-related, 100 mg, N = 11",1 (9.1) n (%)
same,"Stomatitis, All Grade","drug-related, 100 mg, N = 11",9 (81.8) n (%)
same,"Stomatitis, Grade ≥ 3","drug-related, 100 mg, N = 11",0 n (%)
same,"Vomiting, All Grade","drug-related, 100 mg, N = 11",2 (18.2) n (%)
same,"Vomiting, Grade ≥ 3","drug-related, 100 mg, N = 11",0 n (%)
same,"Weight decreased, All Grade","drug-related, 100 mg, N = 11",0 n (%)
same,"Weight decreased, Grade ≥ 3","drug-related, 100 mg, N = 11",0 n (%)
same,"Asthenia, All Grade",[1],3 (9.7) n (%)
same,"Asthenia, Grade ≥ 3",[1],0 n (%)
same,"Chills, All Grade",[1],2 (6.5) n (%)
same,"Chills, Grade ≥ 3",[1],0 n (%)
same,"Colitis, All Grade",[1],2 (6.5) n (%)
same,"Colitis, Grade ≥ 3",[1],2 (6.5) n (%)
same,"Cough, All Grade",[1],2 (6.5) n (%)
same,"Cough, Grade ≥ 3",[1],0 n (%)
same,"Decreased appetite, All Grade",[1],7 (22.6) n (%)
same,"Decreased appetite, Grade ≥ 3",[1],0 n (%)
same,"Decreased neutrophil count, All Grade",[1],2 (6.5) n (%)
same,"Decreased neutrophil count, Grade ≥ 3",[1],1 (3.2) n (%)
same,"Dehydration, All Grade",[1],2 (6.5) n (%)
same,"Dehydration, Grade ≥ 3",[1],1 (3.2) n (%)
same,"Diarrhea, All Grade",[1],12 (38.7) n (%)
same,"Diarrhea, Grade ≥ 3",[1],2 (6.5) n (%)
same,"Dry mouth, All Grade",[1],2 (6.5) n (%)
same,"Dry mouth, Grade ≥ 3",[1],0 n (%)
same,"Dry skin, All Grade",[1],2 (6.5) n (%)
same,"Dry skin, Grade ≥ 3",[1],0 n (%)
same,"Dysgeusia, All Grade",[1],4 (12.9) n (%)
same,"Dysgeusia, Grade ≥ 3",[1],0 n (%)
same,"Fatigue, All Grade",[1],9 (29.0) n (%)
same,"Fatigue, Grade ≥ 3",[1],1 (3.2) n (%)
same,"Headache, All Grade",[1],2 (6.5) n (%)
same,"Headache, Grade ≥ 3",[1],0 n (%)
same,"Hyperglycemia, All Grade",[1],7 (22.6) n (%)
same,"Hyperglycemia, Grade ≥ 3",[1],1 (3.2) n (%)
same,"Hypomagnesaemia, All Grade",[1],2 (6.5) n (%)
same,"Hypomagnesaemia, Grade ≥ 3",[1],0 n (%)
same,"Maculo-papular rash, All Grade",[1],11 (35.5) n (%)
same,"Maculo-papular rash, Grade ≥ 3",[1],8 (25.8) n (%)
same,"Nausea, All Grade",[1],9 (29.0) n (%)
same,"Nausea, Grade ≥ 3",[1],0 n (%)
same,"Pneumonitis, All Grade",[1],2 (6.5) n (%)
same,"Pneumonitis, Grade ≥ 3",[1],2 (6.5) n (%)
same,"Pruritus, All Grade",[1],5 (16.1) n (%)
same,"Pruritus, Grade ≥ 3",[1],0 n (%)
same,"Pyrexia, All Grade",[1],4 (12.9) n (%)
same,"Pyrexia, Grade ≥ 3",[1],0 n (%)
same,"Rash, All Grade",[1],6 (19.4) n (%)
same,"Rash, Grade ≥ 3",[1],2 (6.5) n (%)
same,"Stomatitis, All Grade",[1],14 (45.2) n (%)
same,"Stomatitis, Grade ≥ 3",[1],0 n (%)
same,"Vomiting, All Grade",[1],5 (16.1) n (%)
same,"Vomiting, Grade ≥ 3",[1],0 n (%)
same,"Weight decreased, All Grade",[1],2 (6.5) n (%)
same,"Weight decreased, Grade ≥ 3",[1],0 n (%)
same,"Decreased appetite, any grade",[2],22.6%
same,"Diarrhea, any grade",[2],38.7%
same,"Fatigue, any grade",[2],29%
same,"Hyperglycemia, any grade",[2],22.6%
same,"Maculo-papular rash, any grade",[2],35.5%
same,"Nausea, any grade",[2],29%
same,"Stomatitis, any grade",[2],45.2%
same,Drug-related AEs leading to discontinuation of study treatment,in vivo,16.1%
same,SAEs suspected to be related to the study treatment,in vivo,22.6%
same,Patients with DLTs,"of 31 patients treated, 5-100 mg QD",4 patients
same,SAE colitis,[3],6.5%
same,SAE diarrhea,[3],6.5%
same,SAE pneumonitis,[3],6.5%
